This note sets out measurements from US20220332839A1, “USE OF PRG4 TO TREAT CANCER” (Lubris LLC, priority 2019, published 2022).

One assay relates to HLE and HLF cells. The assay is described as follows: HCC cell adhesion assay on coated wells. To be noted: CD44-shRNA vs control-shRNA; 30 minutes. The format is cell-based, human. The source says: Stable CD44 silencing: HLE and HLF cell lines were transduced with lentiviral particles carrying control non-targeting (V), or specific CD44-targeting shRNA sequences (A to D), and selected with puromycin dihydrochloride (Thermo Fisher Scientific) to obtain stable CD44 silencing, according to manufacturer instructions (OriGene Technologies, Inc., Rockville, Md. 20850, USA). Control-shRNA sequence (V) and CD44-shRNA sequence B were used in all the experiments involving CD44 downregulation.
Adhesion assay: Diluted in 100 μl of serum free DMEM medium (+0.5% BSA), 50,000 cells, were seeded onto uncoated, rhPRG4, or fibronectin (FN)-coated wells of a 96-well plate, and then incubated at 37° C., 5% CO2 for 30 minutes. An equal volume of 4% PFA (pH 7.2 in PBS) was added and the plates were immediately flicked for a few seconds to allow mixing. Thirty minutes later, the medium was removed and the adherent cells were stained with crystal violet for 10 min. After abundant washing with tap water and distilled water the stained cells were allowed to dry out, and then they were solubilized with 100 μl of 1% sodium dodecyl sulphate in water. Absorbance was read at 595 nm and proportionally related to the number of adhered cells.

In a further assay the test system is Smad2. Put plainly: phospho-Smad2 immunoblotting. In kind it is cell-based, human. The note with it: 100 pM TGFβ; 100 μg/mL rhPRG4; 12 h. The method, then: Cells were washed with PBS to remove all growth media. Appropriate volume of TNTE lysis buffer (50 mM Tris, 150 mM NaCl, 1 mM EDTA, 0.5% [v/v] Triton-X-100) containing protease and phosphatase inhibitors, was added to the cell monolayer and incubated at 4° C. under vigorous shaking for 20 minutes. Lysates were then collected in microcentrifuge tubes and centrifuged at 13,000 g for 10 minutes at 4° C. 5 μL of the lysate were subjected to protein concentration determination using Bradford-based protein assays (Bio-Rad Laboratories, Canada). Lysates were boiled for 3 minutes at 95° C. in dithiothreitol (DTT)-containing Laemmli sample buffer. For immunoprecipitation analyses, lysates were incubated with appropriate antibodies at 4° C. with gentle rocking for 3 h after which immunocomplexes were incubated with Protein G-conjugated agarose beads (UBPBio, USA) at 4° C. with gentle rocking for 3 h. Finally, the beads were washed with TNTE wash buffer (0.1% [v/v] Triton-X-100) and boiled for 5 minutes at 95° C. in dithiothreitol (DTT) containing Laemmli sample buffer. Immunoprecipitates and input lysates were then resolved by sodium dodecyl sulfate-polyacrylamide electrophoresis (SDS-PAGE) and transferred onto a nitrocellulose membrane (Bio-Rad Laboratories, Canada). […] Densitometric analyses were performed using Quantity One software (Bio-Rad Laboratories, Canada).
For orientation: In western blotting, separated proteins are transferred to a membrane and probed.

Another assay concerns the target T1, immobilized CD44-IgG1Fc (Homo sapiens, UniProt P16070).
T1 construct: purchased R & D systems
The assay is described as follows: Surface plasmon resonance binding of rhPRG4 to CD44 and competition with HMW HA. The method, then: Binding of rhPRG4 to CD44-IgG1Fc was investigated using surface plasmon resonance (Biacore T100, GE Healthcare Lifesciences, NJ, USA). Series S chips were functionalized using the human antibody capture kit (GE Life Sciences) and either CD44-IgG1Fc or IgG1FC was allowed to bind to the surface of the functionalized chips in flow cell 1 (Fc1) and flow cell 2 (Fc2), respectively. rhPRG4 was injected at 30 μL/min for 8 min at concentrations of 300, 250, 200, 150, 100 and 50 μg/mL followed by a 10 min dissociation using 0.1M HEPES, 1.5M NaCl, 30 mM EDTA, and 0.5% P20 (GE Life Sciences). The surface of the chip was regenerated at the end of each cycle with 1 min pulse of 3M MgCl2. Each analyte concentration was injected in duplicate. The resulting curves were double referenced (i.e. Fc2-Fc1, followed by subtraction of the 0 μg/mL curve). The binding kinetics and binding affinity were determined by BiaEvaluation software, using 1:1 binding/conformational change model or by steady-state equilibrium, respectively. To study the competition between rhPRG4 and HMW HA in binding to CD44, rhPRG4 was injected at concentrations ranging between 0 and 300 μg/mL as described above. Following the end of dissociation phase, HMW HA was injected at 50 μg/mL (30 μL per min) for 1 min. […]
Background: In SPR one partner is held on a chip, and binding of the other changes the refractive index at the surface.

Assay [1] relates to non-metastatic triple negative breast cancer. The assay is described as follows: Treatment of a human with triple negative breast cancer, local injection. The format is in vivo. The method, then: (§1) A human diagnosed with non-metastatic triple negative breast cancer is administered recombinant human PRG4 (rhPRG4) by local injection to the area of the tumor. Administration is done under local anesthesia. A total amount of 2 mL of rhPRG4 in physiological saline at a concentration of 100 ug/mL is administered via a 14 gauge needle. Several injections are made into the tumor and over its surface in order to disperse the dose throughout the tumor area. The dose is administered once weekly for four weeks.
as §1, with “weeks. During the dosing rhPRG4 schedule, the patient also receives a cocktail of taxane and doxorubicin per standard protocols.” for “weeks.”

The test system of another assay is colon cancer. Put plainly: Treatment of a human with colon cancer, systemic administration. The format is in vivo. To be noted: 500 mg rhPRG4 via central venous catheter, once weekly for four weeks. The method, then:
An 80 kg human diagnosed with colon cancer is administered recombinant human PRG4 (rhPRG4) by systemic administration via a central venous catheter. A total amount of 500 mg of rhPRG4 in 250 mL of physiological saline at a concentration of 2.0 mg/mL of lubricin is administered to create a blood concentration of approximately 100 μg/mL. The dose is administered once weekly for four weeks.

Entries after “also recorded” stand apart in the source; their conditions may differ.

In the case of “rhPRG4: full-length recombinant human PRG4 (lubricin) glycoprotein produced by CHO-M cells; residues 25-1404 of SEQ ID NO:1”, the “cell adhesion to lubricin-coated wells” value in the assay with HLE and HLF cells is “impaired upon silencing of CD44 expression”. In the assay with Smad2, the “TGFβ-induced phosphorylation of Smad2” value is recorded as “did not appreciably alter TGFβ-induced phosphorylation of Smad2; also recorded: did not reduce TGFβ-induced Smad2 phosphorylation”. The Kd with immobilized CD44-IgG1Fc (based on a rhPRG4 molecular weight of 240 KDa, read-out: apparent Kd) was about 38 nM. In addition, the “effect on binding of HMW HA to recombinant CD44” value with immobilized CD44-IgG1Fc (rhPRG4 0-300 μg/mL, then HMW HA 50 μg/mL) is given as “interfered with binding of HMW HA”. In addition, the “tumor size by CT scan after four weeks” value in assay [1] (2 mL of 100 ug/mL rhPRG4, local injection, once weekly for four weeks) was “tumor has shrunk in size”; in the assay on colon cancer, “decreased in size”. For the same substance, the “tumor size by CT scan after four weeks, with taxane and doxorubicin” value in assay [1] (2 mL of 100 ug/mL rhPRG4 locally weekly plus taxane and doxorubicin) was “shrunk in size and at a rate faster”.
